Assay results reported in the supplement of paper PMC5579334.

How the values were obtained:
[1] = system: HS-PSS; test: relative IC50 (inflection point of fitted dose-response curve, CellTox-Green cytotoxicity, 72 h; top asymptote may be below 50%); higher = less potent
Outline: (§1)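 For 72 h at 37 °C, MPNST cell lines and primary human Schwann cells were exposed in 384-well plates to five 10-fold compound dilutions. CellTox-Green, added before seeding at a final 1:1000 dilution, gave fluorescence from DNA released by disrupted cells. Signals were scaled to vehicle and positive-control wells, cultures failing plate quality control were left out, and four-parameter logistic fits were applied. Relative IC50 and drug sensitivity score were derived from the fits, with IC50 censored at the top concentration.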

[2] = system: YST-1; test: relative IC50 (inflection point of fitted dose-response curve, CellTiter-Glo viability, 72 h; top asymptote may be below 50% inhibition); higher = less potent
Outline: (§2)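 After seeding 750–1000 cells per well of MPNST cell lines or primary human Schwann cells into 384-well plates preprinted with each compound at five concentrations in 10-fold steps, plates were kept 72 h at 37 °C, 5% CO2. Viability was read as CellTiter-Glo ATP luminescence relative to vehicle and positive-control wells, with duplicates averaged where present. The data were fitted with four-parameter logistic models. Drug sensitivity score and relative IC50, censored at the top concentration, derive from the fits, and percent inhibition refers to the top concentration.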

[3] = system: HS-Sch-2; test: as above
Outline: as §2

[4] = system: HS-PSS; test: drug sensitivity score (DSS, CellTiter-Glo viability, 72 h) (DSS (dimensionless)); higher = more sensitive; extreme values may be limits of the assay
Outline: as §2

[5] = system: HS-Sch-2; test: as above
Outline: as §2

[6] = system: YST-1; test: as above
Outline: as §2

[7] = system: HS-PSS; test: drug sensitivity score (DSS, CellTox-Green cytotoxicity, 72 h) (DSS (dimensionless)); higher = more cytotoxic; extreme values may be limits of the assay
Outline: as §1

[8] = system: HS-PSS; test: % inhibition of CellTiter-Glo viability at highest tested concentration (72 h), relative to DMSO and benzethonium chloride controls; higher = more inhibition
Outline: as §2

[9] = system: HS-Sch-2; test: as above
Outline: as §2

[10] = system: YST-1; test: as above
Outline: as §2

Cc1ncc(Cl)cc1NCc1ccc(C(=O)N[C@@H](CC2CCCC2)C(=O)NC2CC2)s1
relative IC50 [1]: > 5000 nM | relative IC50 [2]: 103 nM

Cn1cc(-c2ccc3nnc(C(F)(F)c4ccc5ncccc5c4)n3n2)cn1
relative IC50 [1]: > 10000 nM

O=C(NC[C@H](O)CN1CCc2ccccc2C1)c1cc(NC2COC2)ncn1
relative IC50 [1]: > 10000 nM

O=C(NOCC1CC1)c1ccc(F)c(F)c1Nc1ccc(I)cc1Cl
relative IC50 [1]: > 10000 nM | relative IC50 [3]: 1630 nM

O=C(NOC[C@H](O)CO)c1ccc(F)c(F)c1Nc1ccc(I)cc1F
relative IC50 [1]: > 1000 nM | relative IC50 [2]: > 1000 nM

OCCn1cc(-c2cnc3nnn(Cc4ccc5ncccc5c4)c3n2)cn1
relative IC50 [1]: > 2500 nM | relative IC50 [3]: > 2500 nM

Cc1ccccc1C(C(=O)NC1CCCCC1)N(C(=O)Cn1ccnc1C)c1cccc(F)c1 (stereo not drawn) [AGI-5198]
relative IC50 [1]: > 10000 nM | relative IC50 [2]: > 10000 nM

CC(C)Oc1cc(Nc2nc(N[C@@H](C)c3ccc(F)cn3)ncc2Cl)n[nH]1 [AZ-23]
relative IC50 [2]: 162 nM

Cc1nc(NC(=O)N2CCC[C@H]2C(N)=O)sc1-c1ccnc(C(C)(C)C(F)(F)F)c1 [Alpelisib]
relative IC50 [1]: > 2500 nM | relative IC50 [2]: 217 nM

COC(=O)N[C@@H](C)CNc1nccc(-c2cn(C(C)C)nc2-c2cc(Cl)cc(NS(C)(=O)=O)c2F)n1 [Encorafenib]
relative IC50 [1]: > 1000 nM | relative IC50 [2]: > 1000 nM

CN1CC[C@@H](NC(=O)Nc2ccc(C#N)cc2)C[C@@H]1c1nc2ccccc2[nH]1 [Glasdegib]
relative IC50 [1]: > 1000 nM | relative IC50 [2]: > 1000 nM

CN1CCN(C2CCN(C(=O)Nc3cc(Oc4ccc(NC(=O)C5(C(=O)Nc6ccc(F)cc6)CC5)c(F)c4)ccn3)CC2)CC1 [Golvatinib]
relative IC50 [1]: > 2500 nM

C#Cc1cccc(Nc2ncnc3cc4c(cc23)OCCOCCOCCO4)c1 [Icotinib]
relative IC50 [1]: > 10000 nM

O=C(Nc1ccc(OC(F)(F)F)cc1)c1sccc1NCc1ccnc2ccccc12 [OSI-930]
relative IC50 [1]: > 2500 nM | relative IC50 [2]: > 2500 nM

COc1ccc(Cl)c(Nc2nc3ccccc3nc2NS(=O)(=O)c2cccc(NC(=O)C(C)(C)N)c2)c1 [Pilaralisib]
relative IC50 [1]: > 2500 nM | relative IC50 [2]: 674 nM

Cc1cc(-c2ncc(-c3cccnc3)cc2/C=C/c2ccccc2)cnc1-c1cccnc1 [Pyridoclax]
relative IC50 [1]: > 25000 nM | relative IC50 [2]: 672 nM

C=CC(=O)Nc1cccc(Nc2nc(Nc3ccc(OCCOC)cc3)ncc2F)c1 [Spebrutinib]
relative IC50 [1]: > 1000 nM

COc1cc(C(=O)NC2CCN(C)CC2)c(F)cc1Nc1ncc2c(n1)N(C1CCCC1)CC(F)(F)C(=O)N2C [TAK-960]
relative IC50 [1]: > 2500 nM | relative IC50 [2]: > 2500 nM

Cc1cccc(-c2[nH]c(CNc3ccccc3F)nc2-c2ccc3ncnn3c2)n1 [TEW-7197]
relative IC50 [1]: > 2500 nM | relative IC50 [2]: > 2500 nM

Clc1ccccc1C(c1ccccc1)(c1ccccc1)n1cccn1 [TRAM-34]
relative IC50 [1]: > 1000 nM | relative IC50 [2]: > 1000 nM

CCN(c1cc(-c2ccc(CN3CCOCC3)cc2)cc(C(=O)NCc2c(C)cc(C)[nH]c2=O)c1C)C1CCOCC1 [Tazemetostat]
relative IC50 [1]: > 10000 nM | relative IC50 [2]: > 10000 nM

NC(=S)N/N=C/c1ncccc1N [Triapine] (max concentration tested 10000 nM)
drug sensitivity score [4]: 4.81 | drug sensitivity score [5]: 5.68 | drug sensitivity score [6]: 2.82 | drug sensitivity score [7]: 0.94 | % inhibition [8]: 65.6% | % inhibition [9]: 63.9% | % inhibition [10]: 63.8%

COC(=O)c1ccc2c(c1)[nH]c1ncnc(NCCCN3CCCCC3)c12 [UM729] (max concentration tested 10000 nM)
drug sensitivity score [4]: 0.05 | drug sensitivity score [5]: 1.25 | drug sensitivity score [6]: 3.85 | drug sensitivity score [7]: 0 | % inhibition [8]: 13.2% | % inhibition [9]: 29% | % inhibition [10]: 35.4%

O=C(O)CSc1cc(NS(=O)(=O)c2ccc(Br)cc2)c2ccccc2c1O [UMI-77] (max concentration tested 100000 nM)
drug sensitivity score [4]: 6.44 | drug sensitivity score [5]: 14.4 | drug sensitivity score [6]: 18.2 | drug sensitivity score [7]: 4.6 | % inhibition [8]: 101% | % inhibition [9]: 101% | % inhibition [10]: 102%

CCCCNc1ncc(C(=O)NCc2ccc(-n3ccnc3)cc2)c(NC2CCC(O)CC2)n1 (stereo not drawn) [UNC2881] (max concentration tested 2500 nM)
drug sensitivity score [4]: 3.51 | drug sensitivity score [5]: 0 | drug sensitivity score [6]: 3.6 | drug sensitivity score [7]: 0 | % inhibition [8]: 37% | % inhibition [9]: 9.68% | % inhibition [10]: 38.9%

NC(=O)c1cccc(-c2cccc(OC(=O)NC3CCCCC3)c2)c1 [URB597] (max concentration tested 1000 nM)
drug sensitivity score [4]: 1.09 | drug sensitivity score [5]: 0 | drug sensitivity score [6]: 0 | drug sensitivity score [7]: 0 | % inhibition [8]: 18.8% | % inhibition [9]: 0.43% | % inhibition [10]: -6.54%

CC(C)Nc1cc(-c2c[nH]c(C(=O)N[C@H](CO)c3cccc(Cl)c3)c2)c(Cl)cn1 [Ulixertinib] (max concentration tested 10000 nM)
drug sensitivity score [4]: 2.52 | drug sensitivity score [5]: 6.76 | drug sensitivity score [6]: 3.93 | drug sensitivity score [7]: 0 | % inhibition [8]: 53% | % inhibition [9]: 68.7% | % inhibition [10]: 41.1%

Cn1ncc(Cl)c1-c1cc(C(=O)N[C@H](CN)Cc2ccc(F)c(F)c2)oc1Cl [Uprosertib] (max concentration tested 10000 nM)
drug sensitivity score [4]: 0 | drug sensitivity score [5]: 0 | drug sensitivity score [6]: 3.04 | drug sensitivity score [7]: 0 | % inhibition [8]: 9.97% | % inhibition [9]: 6.41% | % inhibition [10]: 21.9%

Oc1ncc(N(CCCl)CCCl)c(O)n1 [Uramustine] (max concentration tested 10000 nM)
drug sensitivity score [4]: 0 | drug sensitivity score [5]: 0 | drug sensitivity score [6]: 0 | drug sensitivity score [7]: 0 | % inhibition [8]: -0.55% | % inhibition [9]: 3% | % inhibition [10]: 1.38%

CS(=O)(=O)c1ccc(-c2cnc(N)c(C(=O)Nc3ccccc3)n2)cc1 [VE-821] (max concentration tested 10000 nM)
drug sensitivity score [4]: 0.05 | drug sensitivity score [5]: 0 | drug sensitivity score [6]: 0 | drug sensitivity score [7]: 0 | % inhibition [8]: 10.4% | % inhibition [9]: 5.62% | % inhibition [10]: 7.49%

O=C(O)CC1CC(c2ccccc2)=NO1 (stereo not drawn) [VGX-1027] (max concentration tested 10000 nM)
drug sensitivity score [4]: 0 | drug sensitivity score [5]: 0.12 | drug sensitivity score [6]: 0 | drug sensitivity score [7]: 0 | % inhibition [8]: 4.47% | % inhibition [9]: 13.4% | % inhibition [10]: 4%

CNC(=O)c1ccccc1Nc1cc(Nc2ccc(N3CCOCC3)cc2OC)ncc1C(F)(F)F [VS-4718] (max concentration tested 10000 nM)
drug sensitivity score [4]: 3.23 | drug sensitivity score [5]: 3.18 | drug sensitivity score [6]: 4.99 | drug sensitivity score [7]: 0.03 | % inhibition [8]: 68.6% | % inhibition [9]: 50.4% | % inhibition [10]: 45.2%

O=c1ncn2nc(Sc3ccc(F)cc3F)ccc2c1-c1c(Cl)cccc1Cl [VX 745]
relative IC50 [1]: > 10000 nM | relative IC50 [2]: 778 nM

O=c1ncn2nc(Sc3ccc(F)cc3F)ccc2c1-c1c(Cl)cccc1Cl [VX 745] (max concentration tested 10000 nM)
drug sensitivity score [4]: 0.47 | drug sensitivity score [5]: 0.7 | drug sensitivity score [6]: 3.73 | drug sensitivity score [7]: 0 | % inhibition [8]: 21.1% | % inhibition [9]: 22.6% | % inhibition [10]: 31.1%

CCCC(CCC)C(=O)O [Valproic acid] (max concentration tested 1000000 nM)
drug sensitivity score [4]: 0 | drug sensitivity score [5]: 0 | drug sensitivity score [6]: 2.34 | drug sensitivity score [7]: 0 | % inhibition [8]: 6.13% | % inhibition [9]: 2.29% | % inhibition [10]: 44.2%

C[C@@H]1COC(Nc2ccc3ncnc(Nc4ccc(OCc5nccs5)c(Cl)c4)c3c2)=N1 [Varlitinib] (max concentration tested 10000 nM)
drug sensitivity score [4]: 5.07 | drug sensitivity score [5]: 2.41 | drug sensitivity score [6]: 3.23 | drug sensitivity score [7]: 0 | % inhibition [8]: 42% | % inhibition [9]: 30.6% | % inhibition [10]: 27.7%

CC1(C)CCC(CN2CCN(c3ccc(C(=O)NS(=O)(=O)c4ccc(NCC5CCOCC5)c([N+](=O)[O-])c4)c(Oc4cnc5[nH]ccc5c4)c3)CC2)=C(c2ccc(Cl)cc2)C1 [Venetoclax] (max concentration tested 1000 nM)
drug sensitivity score [4]: 0 | drug sensitivity score [5]: 0 | drug sensitivity score [6]: 0.21 | drug sensitivity score [7]: 0 | % inhibition [8]: -9.6% | % inhibition [9]: 0.97% | % inhibition [10]: 16.4%

O=C(/C=C\n1cnc(-c2cc(C(F)(F)F)cc(C(F)(F)F)c2)n1)NNc1ccccn1 [Verdinexor] (max concentration tested 1000 nM)
drug sensitivity score [4]: 5.78 | drug sensitivity score [5]: 9.76 | drug sensitivity score [6]: 8.71 | drug sensitivity score [7]: 0.01 | % inhibition [8]: 60% | % inhibition [9]: 97% | % inhibition [10]: 88.9%

CCn1c(=O)c(-c2cc[nH]n2)cc2c(C)nc(N)nc21 [Voxtalisib] (max concentration tested 10000 nM)
drug sensitivity score [4]: 3.33 | drug sensitivity score [5]: 4.83 | drug sensitivity score [6]: 9.29 | drug sensitivity score [7]: 0 | % inhibition [8]: 48.4% | % inhibition [9]: 64.5% | % inhibition [10]: 86.5%

O=C(Nc1ccc(-c2ccnc(Nc3ccc(N4CCOCC4)cc3)n2)cc1)[C@H]1CCCN1 [XL019] (max concentration tested 10000 nM)
drug sensitivity score [4]: 1.67 | drug sensitivity score [5]: 1.09 | drug sensitivity score [6]: 1.13 | drug sensitivity score [7]: 0 | % inhibition [8]: 32.7% | % inhibition [9]: 22.7% | % inhibition [10]: 24.9%

COc1cc2c(Nc3ccc(Cl)c(Cl)c3F)ncnc2cc1OC[C@H]1C[C@@H]2CN(C)C[C@@H]2C1 [XL-647] (max concentration tested 1000 nM)
drug sensitivity score [4]: 0.99 | drug sensitivity score [5]: 1.16 | drug sensitivity score [6]: 1.63 | drug sensitivity score [7]: 0 | % inhibition [8]: 30.7% | % inhibition [9]: 31.1% | % inhibition [10]: 26.5%

c1ccc(Cn2c(-c3ccc(OC[C@H](C4CCNCC4)n4c(-c5ccccc5)nc5ccccc54)cc3)nc3ccccc32)cc1 [deltarasin] (max concentration tested 10000 nM)
drug sensitivity score [4]: 6.88 | drug sensitivity score [5]: 5.77 | drug sensitivity score [6]: 5.29 | drug sensitivity score [7]: 5.68 | % inhibition [8]: 101% | % inhibition [9]: 101% | % inhibition [10]: 100%
